Measured values taken from patent publication US20240026261A1, “ENGINEERING OF ORGANOID CULTURE FOR ENHANCED ORGANOGENESIS IN A DISH” (THE TRUSTEES OF THE UNIVERSITY OF PENNSYLVANIA, priority 2020, published 2024).

Key:
Type in all cases: cell-based, mouse
intestinal organoids = assay: Intracellular calcium imaging (Fluo-4) of intestinal organoids
Experimental: To assess the level of intracellular calcium, the organoids were labeled with a fluorescent calcium indicator dye (Fluo-4) and monitored their fluorescence in real-time. Given the multicellular complexity of organoids, the mean fluorescence intensity was measured from representative organoids selected for analysis. Upon treatment with 100 μM ATP, organoids in the device increased their fluorescence by approximately 1.6-fold within 60 seconds, which was followed by a gradual decrease to the baseline level (FIG. 4E).
For calcium imaging, the organoid media were removed from the culture wells, and the organoid constructs were washed once in live-cell imaging solution (LCIS). The organoids were then loaded with Fluo-4 calcium imaging solution (F10489, ThermoFisher Scientific, USA) prepared according to the manufacturer's protocol. The samples were incubated at 37° C. for 30 minutes, which was followed by another 30-minute incubation at room temperature. Subsequently, the Fluo-4 solution was removed, and the organoids were washed once with LCIS. All samples were kept in fresh LCIS until use. An inverted epi-fluorescence microscope (Axio Observer D1, Zeiss, Germany) was used to visualize calcium staining of organoids upon stimulation with 100 μM of ATP (A1852, Sigma, USA) and 50 mM of glucose (G7021, Sigma, USA).
For ratiometric analysis of changes in Ca2+ levels, fluorescence intensity for each or-ganoid was measured during an experiment, and values were normalized by their resting intensities using the equation below.
ΔCa^2+=(F−Frest)/Frest (1)

[1] = tested on: co-culture of intestinal organoids and primary intestinal fibroblasts (released fibronectin); assay: Intestinal fibrosis model in OCTOPUS, released fibronectin by ELISA of conditioned media
From the text: (§1) The difference between the two groups became evident within 3 days of treatment and remained statistically significant throughout the culture period (FIG. 6I). […] Consistent with the analysis of fibroblast activation and proliferation (FIG. 6E, FIG. 6F), from the comparison between co-culture and monoculture models, intestinal organoids potentiate the fibrogenic effect of TGF-β and promote FN production by fibroblasts (FIG. 6I, FIG. 6J) were identified.
(§2) First, fibrotic intestinal tissue constructs in OCTOPUS were generated by forming co-culture organoids over 5 days and exposing them to TGF-β for another 7 days as described above (day 5-day 12). These constructs were then treated with clinically relevant concentrations of the drugs for 48 hours (day 13-day 14) within the therapeutic window identified by viability assessment (data not shown). […] At 0.1 mM, Pirfenidone was effective for altering the contractile phenotype of fibroblasts, as illustrated by 50% reduction in αSMA compared to the untreated control (FIGS. 6L to 6O).
For the analysis of fibronectin production in the intestinal fibrosis model, a mouse fibronectin ELISA kit (ab108849, abcam, USA) was used. The media in the wells were collected at specified time points and assayed using manufacturer-provided protocols. First, 50 μl of standard or device-collected samples were added into each well and incubated for 2 hours at room temperature. Subsequently, the wells were washed 5 times with 300 μl of wash buffer solution and then incubated with fibronectin antibody for 1 hour. […]
For all ELISA assays, a multimode plate reader (M200, Tecan, Switzerland) was used to measure the optical density of samples. […]
(§3) To form an intestinal fibrosis model suitable for, e.g. drug testing, in OCTOPUS, mouse intestinal stem cells were mixed with 1×10^6 cells/ml of mouse intestinal fibroblasts in Matrigel (356255, Corning, USA). […] The fibrosis model was treated with drugs for 48 hours, after which changes in its fibrotic phenotype were analyzed using the methods described herein.

[2] = tested on: co-culture of intestinal organoids and primary intestinal fibroblasts (αSMA); assay: TGF-β-induced intestinal fibrosis model in OCTOPUS, αSMA immunofluorescence (fibroblast activation); conditions: for increase in level of αSMA expression in comparison to untreated tissues: TGF-β 1 ng/ml from day 5
From the text: To this end, OCTOPUS was used to set up a co-culture of intestinal organoids and primary intestinal fibroblasts in the same hydrogel scaffold and generate a multicellular construct reminiscent of the intestinal epithelium and its underlying stroma in vivo (FIG. 6A). In this mixed co-culture configuration, the intestinal progenitor cells embedded in Matrigel developed into or-ganoids over the course of 5 days or so, during which fibroblasts began to spread and proliferate around the nascent organoids. […] Prolonged culture in this device led to the formation of microtissues densely populated with enlarged organoids and fibroblasts (FIG. 6C).
(§4) To simulate the scenario of using this system to assess intestinal fibrosis in a conventional laboratory setting, a common technique widely used for in vitro modeling of fibrosis, which was to treat the co-culture construct with transforming growth factor (TGF)-β, were used. TGF-β plays a central role in the pathogenesis of fibrosis in the intestine and other organs by inducing the activation of fibroblasts and their transdifferentiation into myofibroblasts, which are the key effector cells that drive fibrogenesis. To trigger fibrogenic responses, the model was treated with TGF-β at 1 ng/ml from day 5 to day 12. Exposure of the intestinal microtissue to this condition indeed caused the fibroblasts to acquire the contractile phenotype of myofibroblasts, as evidenced by robust expression of alpha-smooth muscle actin (αSMA) (FIG. 6D). In comparison to untreated tissues, the level of expression increased by more than 1.9- and 2.9-fold by day 8 and day 12, respectively (FIG. 6E).
as §2
(§5) To form an intestinal fibrosis model suitable for, e.g. drug testing, in OCTOPUS, mouse intestinal stem cells were mixed with 1×10^6 cells/ml of mouse intestinal fibroblasts in Matrigel (356255, Corning, USA). This cell-containing hydrogel solution was injected into the device to form microtissue constructs in the organoid culture chambers. After gelation for 15 minutes in a regular cell culture incubator, 750 μl of IntestiCult™ organoid growth medium (06005, STEMCELL Technologies, Canada) was added into each well and maintained for 5 days to induce intestinal organoid development and fibroblast proliferation. During this period, the media were replenished every other day. To induce fibrosis, 1 ng/ml of TGF-β (T5050, Sigma, USA) was added to the culture wells on day 5 and maintained for additional 7 days. Drug administration occurred on day 12 using commercially available Pirfenidone (P1871, TCI America, USA) and Nintedanib (S1010, Selleckchem, USA) at specified concentrations. The fibrosis model was treated with drugs for 48 hours, after which changes in its fibrotic phenotype were analyzed using the methods described herein.
(§6) For immunofluorescence staining, cells in OCTOPUS were washed with PBS twice, fixed with 4% paraformaldehyde (Electron Microscopy Sciences, USA) for 15 minutes at room temperature, and washed again twice with PBS. The cells were then permeabilized with 0.1% Triton X-100 (Sigma) in PBS for 3 minutes and exposed to blocking buffer composed of PBS and 3% bovine serum albumin (BSA; Sigma) for overnight at 4° C. […]

[3] = tested on: co-culture of intestinal organoids and primary intestinal fibroblasts (fibronectin); assay: Intestinal fibrosis model in OCTOPUS, fibronectin (FN) deposition by immunofluorescence
From the text: as §1, §2, §5, §6

[4] = tested on: co-culture microtissues of intestinal organoids and fibroblasts; assay: Intestinal fibrosis model in OCTOPUS, tissue stiffness by atomic force microscopy; conditions: for stiffness of the TGF-β-treated fibrotic tissues (AFM): administered at higher doses
Experimental: To further validate the fibrotic phenotype of the model, the stiffness of the TGF-β-treated microtissues was measured by using atomic force microscopy (AFM). This measurement was greatly facilitated by the open-top design of OCTOPUS that allowed direct access of the AFM probe to the tissue constructs in the culture chambers (FIG. 6K). […] As expected, treatment of this model with TGF-01 led to a marked increase in the extent of tissue stiffening and generated co-culture constructs that were 2.9 times stiffer than those in the untreated devices (FIG. 6K).
The average stiffness measured in the fibrosis model treated with 0.5 mM Pirfenidone (3.5 kPa) closely matched that of normal tissue constructs (3.3 kPa), illustrating the potential of Pirfenidone to normalize the mechanical property of fibrotic intestinal tissues in the model system.
as §5
Atomic force microscopy (AFM, MFP-3D-BIO, Asylum) was used to measure the stiffness of hydrated microtissues in the intestinal fibrosis models. A gold-coated cantilever (SCONT tip, NANOSENSORS) with a spring constant of 14.58 pN/nm and a pyramid indenter was used to obtain force-indentation curves. The tissue samples in the open chambers were used directly without any modification. For the AFM measurement, the OCTOPUS insert containing microtissue was removed from the plate and mounted on the instrument. After wetting the microtissue with a drop of PBS, its mechanical property was measured with the scanning probe. Young's modulus was calculated from the force indentation data using the Atomic J software.

[5] = tested on: primary intestinal fibroblasts co-cultured with intestinal organoids; assay: Intestinal fibrosis model in OCTOPUS, fibroblast proliferation; conditions: TGF-β 1 ng/ml from day 5; by day 12
From the text: as §4, §3

[6] = higher-dose (0.5 mM) treatment, 48 hours
[7] = 0.5 μM, 48 hours, to levels comparable to Pirfenidone at 0.5 mM

O=C[C@H](O)[C@@H](O)[C@H](O)[C@H](O)CO [D-glucose]
increase in intracellular calcium in OCTOPUS (intestinal organoids; 50 mM, organoids in OCTOPUS): greater than that induced by ATP stimulation

Cc1ccc(=O)n(-c2ccccc2)c1 [Pirfenidone]
amount of FN released from the model (ELISA) ([1]; 48 hours treatment): reduced | reduction in αSMA compared to the untreated control ([2]; 0.1 mM, 48 hours, TGF-β-induced fibrotic constructs): 50% | expression of αSMA ([2]; dose increased to 0.5 mM, 48 hours): further decreased | level of αSMA expression versus normal group (healthy intestinal tissue) [2, 6]: statistically indistinguishable | immunofluorescence of FN in drug-treated fibrotic constructs ([3]; 48 hours treatment): significantly decreased | level of FN production versus normal group (healthy intestinal tissue) [3, 6]: statistically indistinguishable | average stiffness of the treated fibrosis model ([4]; 0.5 mM, 48 hours, normal tissue constructs 3.3 kPa): 3.5 kPa | stiffness of the TGF-β-treated fibrotic tissues (AFM) ([4]; 48 hours): significantly decreased

Nc1ncnc2c1ncn2[C@@H]1O[C@H](COP(=O)(O)OP(=O)(O)OP(=O)(O)O)[C@@H](O)[C@H]1O [ATP]
calcium response of the conventional model (Matrigel drop) (intestinal organoids; 100 μM, hydrogel drop culture, versus OCTOPUS): noticeably slower and occurred to a lesser extent | increase in Fluo-4 fluorescence (intracellular calcium) (intestinal organoids; 100 μM, organoids in OCTOPUS, within 60 seconds): approximately 1.6 fold

COC(=O)c1ccc2c(c1)NC(=O)/C2=C(\Nc1ccc(N(C)C(=O)CN2CCN(C)CC2)cc1)c1ccccc1 [Nintedanib]
concomitant reduction in the concentration of released FN (ELISA) ([1]; 0.5 μM, 48 hours): not observed | fibroblast activation (αSMA) [2, 7]: decreased substantially | effects on the fibrosis model (αSMA, FN) ([2]; lower dose 0.1 μM, 48 hours): failed to exert significant effects | FN accumulation [3, 7]: decreased substantially | stiffness of the TGF-β-treated fibrotic tissues (AFM) ([4]; 48 hours): significantly decreased

transforming growth factor (TGF)-β [TGF-β]
fibroblast proliferation, cells compared to the untreated control group [5]: approximately twice as many cells | released FN (ELISA of conditioned media) ([1]; TGF-β 1 ng/ml, day 5 to day 12): higher levels of released FN | increase in level of αSMA expression in comparison to untreated tissues ([2]; by day 8): more than 1.9 fold | increase in level of αSMA expression in comparison to untreated tissues ([2]; by day 12): > 2.9 fold | FN in the pericellular regions of fibroblasts (immunostaining) compared to untreated tissues ([3]; TGF-β 1 ng/ml, day 5 to day 12): substantially increased | average tissue stiffness ([4]; TGF-β-treated co-culture constructs, AFM): 10.1 kPa | stiffness of co-culture constructs relative to untreated devices ([4]; TGF-β-treated, AFM, 14 days culture): 2.9 times
